Test results: patent US20110014308A1, “NOVEL COMPOSITIONS AND USE THEREOF FOR THE TREATMENT, CO-TREATMENT OR PREVENTION OF INFLAMMATORY DISORDERS” (priority 2007, published 2011)

Assays:
Assay type in all cases: cell-based
human collagen I = test: Collagen I gene expression (mRNA, RT-PCR) in normal human chondrocytes; details: anabolic gene, % of unstimulated cells (set at 100%), HT 1.925 mg/L, CS 500 mg/L, or both
From the text: In articular cartilage, the balance between anabolic (build-up) and catabolic (break down) events needs to be maintained in order to prevent hypertrophy and excessive degradation of extracellular matrix (ECM), respectively. The ECM is built up of collagen and proteoglycans that are the products of collagen genes, for example human collagen I or aggrecan genes which are actived during anabolic events. A substance which increases expression of these genes or the respective proteins (i.e. collagen and aggrecan) favors cartilage regeneration and/or build-up. The effect of HT in combination with chondroitin was tested on the expression of human aggrecan or collagen I in normal human chondrocytes (derived from knee) (CC-2550; Cambrex, respectively). OH-tyrosol (HT) was from Cayman Chemicals or from DSM; chondroitin sulfate (from shark) was purchased from Sigma. A control experiment without the compounds was done concomitantly to compare the expression of these genes. Normal human chondrocytes were cultured for 4 hours or 4 days with HT (at 12.5 micromol/L), chondroitin (at 500 mg/L) as well as with both. The level of mRNA was determined by RT-PCR (Richard et al. Mol. Nutr. Food Res. 49, 431-442, 2005) and expressed relative to the level observed in cells cultured without the substances. […]

MMP-1 = MMP-1 gene expression (mRNA, RT-PCR) in IL1beta-treated normal human chondrocytes; details: catabolic gene, % of IL1beta-treated cells (set at 100%), HT 1.925 mg/L, CS 500 mg/L, or both
Experimental: (§1) Catabolic events are controlled by the expression of genes, e.g. those genes that encode matrix metalloproteinases (MMPs) that eventually break down collagen. Of the MMPs, MMP-1 and MMP-3 have a major role in the degradation of the ECM and thus in cartilage erosion. The effect of HT in combination with chondroitin was tested on the expression of human aggrecan or collagen I in normal human chondrocytes (derived from knee) (CC-2550; Cambrex, respectively). OH-tyrosol (HT) was from Cayman Chemicals or from DSM; chondroitin sulfate (from shark) was purchased from Sigma. A control experiment without the compounds was done concomitantly to compare the expression of these genes. Normal human chondrocytes were cultured for 4 hours or 4 days with HT (at 12.5 micromol/L), chondroitin (at 500 mg/L) as well as with both. The level of mRNA was determined by RT-PCR (Richard et al. Mol. Nutr. Food Res. 49, 431-442, 2005) and expressed relative to the level observed in cells cultured without the substances. The given values indicate the level of gene expression (in % of unstimulated cells [set at 100%] for anabolic and anti-catabolic genes; in % of IL1beta-treated cells [set at 100%], for catabolic genes). […]

MMP-13 = MMP-13 gene expression (mRNA, RT-PCR) in IL1beta-treated normal human chondrocytes; details: catabolic gene, % of IL1beta-treated cells (set at 100%), HT 1.925 mg/L, CS 500 mg/L, or both
Experimental: as §1

human aggrecan = test: Aggrecan gene expression (mRNA, RT-PCR) in normal human chondrocytes; details: anabolic gene, % of unstimulated cells (set at 100%), CS 500 mg/L, or both; for Aggrecan (unstim., 4 hrs) level of gene expression: HT 1.925 mg/L (12.5 micromol/L); for Aggrecan (unstim. 4 d) level of gene expression: HT 1.925 mg/L
From the text: (§2) In articular cartilage, the balance between anabolic (build-up) and catabolic (break down) events needs to be maintained in order to prevent hypertrophy and excessive degradation of extracellular matrix (ECM), respectively. The ECM is built up of collagen and proteoglycans that are the products of collagen genes, for example human collagen I or aggrecan genes which are actived during anabolic events. A substance which increases expression of these genes or the respective proteins (i.e. collagen and aggrecan) favors cartilage regeneration and/or build-up. The effect of HT in combination with chondroitin was tested on the expression of human aggrecan or collagen I in normal human chondrocytes (derived from knee) (CC-2550; Cambrex, respectively). OH-tyrosol (HT) was from Cayman Chemicals or from DSM; chondroitin sulfate (from shark) was purchased from Sigma. A control experiment without the compounds was done concomitantly to compare the expression of these genes. Normal human chondrocytes were cultured for 4 hours or 4 days with HT (at 12.5 micromol/L), chondroitin (at 500 mg/L) as well as with both. The level of mRNA was determined by RT-PCR (Richard et al. Mol. Nutr. Food Res. 49, 431-442, 2005) and expressed relative to the level observed in cells cultured without the substances. The given values indicate the level of gene expression (in % of unstimulated cells [set at 100%] for anabolic and anti-catabolic genes; in % of IL1beta-treated cells [set at 100%], for catabolic genes). The combination of HT was used at 12.5 micromol/L (=1.925 mg/L), while the chondroitin sulfate (CS) was tested at 500 mg/L. The results shown in Table 1 indicate that a HT altered the expression of anabolic genes such as aggrecan or collagen. Similar effects were elicited by chondroitin. Yet, when combined the observed increase in gene expression exceeded the expected value reflecting a synergistic interaction.

IL-1beta = IL-1beta gene expression (mRNA, RT-PCR) in IL1beta-treated normal human chondrocytes; details: catabolic gene, % of IL1beta-treated cells (set at 100%), HT 1.925 mg/L, CS 500 mg/L, or both
Experimental: as §2, with “The” for “In articular cartilage, the balance between anabolic (build-up) and catabolic (break down) events needs to be maintained in order to prevent hypertrophy and excessive degradation of extracellular matrix (ECM), respectively. The ECM is built up of collagen and proteoglycans that are the products of collagen genes, for example human collagen I or aggrecan genes which are actived during anabolic events. A substance which increases expression of these genes or the respective proteins (i.e. collagen and aggrecan) favors cartilage regeneration and/or build-up. The”

MMP-2 = MMP-2 gene expression (mRNA, RT-PCR) in IL1beta-treated normal human chondrocytes; details: catabolic gene, % of IL1beta-treated cells (set at 100%), HT 1.925 mg/L, CS 500 mg/L, or both
Experimental: as §1

OCCc1ccc(O)c(O)c1 [HT, 2-(3,4-dihydroxyphenyl)-ethanol]
Collagen 1 (unstim. 4 d) level of gene expression (human collagen I): 113%
MMP-1 (stim., 4 d) level of gene expression (MMP-1): 109%
MMP-13 (stim., 4 hrs) level of gene expression (MMP-13): 96%
Aggrecan (unstim., 4 hrs) level of gene expression (human aggrecan): 115%
Aggrecan (unstim. 4 d) level of gene expression (human aggrecan): 118%
IL-1beta (stim., 4 hrs) level of gene expression (IL-1beta): 83%
MMP-2 (stim., 4 hrs) level of gene expression (MMP-2): 102%

chondroitin sulfate [CS]
Collagen 1 (unstim. 4 d) level of gene expression (human collagen I): 103%
MMP-1 (stim., 4 d) level of gene expression (MMP-1): 122%
MMP-13 (stim., 4 hrs) level of gene expression (MMP-13): 90%
Aggrecan (unstim., 4 hrs) level of gene expression (human aggrecan): 113%
Aggrecan (unstim. 4 d) level of gene expression (human aggrecan): 97%
IL-1beta (stim., 4 hrs) level of gene expression (IL-1beta): 91%
MMP-2 (stim., 4 hrs) level of gene expression (MMP-2): 116%
